According to ChEMBL document CHEMBL5131572, “Identification of a Potent, Selective, and Brain-Penetrant Rho Kinase Inhibitor and its Activity in a Mouse Model of Huntington's Disease” (J Med Chem, 2022):

Tests used:
[1] = test system: Mus musculus; experiment: Antihypertensive activity in CD1 mouse assessed as decrease in systolic blood pressure at 10 to 20 mg/kg, po measured after 0.5 to 2 hrs; format: functional; conditions: dose 10-20 mg/kg, time 0.5-2 hrs
[2] = test system: Mus musculus; experiment: In vivo inhibition of ROCK in HTT zQ175DN Knock-in mouse assessed as reduction in MYPT1 phosphorylation in striatum at 10 mg/kg, po by MSD assay; format: functional, organism-based; conditions: time 1-8 hrs, TDE = time-dependent effect
[3] = Inhibition of ROCK in rat A7R5 cells assessed as increase in AKT phosphorylation measured after 30 mins by alphaLISA Surefire multiplex assay; format: cell-based; conditions: A7R5, 0.5 h
[4] = test system: Mus musculus; experiment: Antihypertensive activity in CD1 mouse assessed as decrease in heart rate pressure at 10 to 20 mg/kg, po measured after 0.5 to 2 hrs; conditions: dose 10-20 mg/kg, time 0.5-2 hrs
[5] = biological target: Rho-associated protein kinase 2 (Homo sapiens, UniProt O75116); experiment: Inhibition of recombinant N-terminal GST-tagged human ROCK2 (5 to 554 residues) expressed in baculovirus infected Sf9 cells using S6K as substrate incubated for 30 mins in presence of ATP by ADP Glo kinase assay
[6] = test system: Mus musculus; experiment: In vivo inhibition of ROCK in po dosed HTT zQ175DN Knock-in mouse assessed as reduction in MYPT1 phosphorylation in striatum after 1 hr by MSD assay; format: functional, organism-based; conditions: dose 1-20 mg/kg, DDE = dose-dependent effect
[7] = biological target: T1, cGMP-dependent protein kinase 1 (Homo sapiens, UniProt Q13976); experiment: Inhibition of full length recombinant N-terminal GST-tagged human PKG expressed in baculovirus infected Sf9 insect cells using RSK as substrate preincubated for 15 mins followed by substrate addition and measured after 30 mins in presence of ATP by ADP Glo kinase assay
T1 sequence (Q13976 whole entry): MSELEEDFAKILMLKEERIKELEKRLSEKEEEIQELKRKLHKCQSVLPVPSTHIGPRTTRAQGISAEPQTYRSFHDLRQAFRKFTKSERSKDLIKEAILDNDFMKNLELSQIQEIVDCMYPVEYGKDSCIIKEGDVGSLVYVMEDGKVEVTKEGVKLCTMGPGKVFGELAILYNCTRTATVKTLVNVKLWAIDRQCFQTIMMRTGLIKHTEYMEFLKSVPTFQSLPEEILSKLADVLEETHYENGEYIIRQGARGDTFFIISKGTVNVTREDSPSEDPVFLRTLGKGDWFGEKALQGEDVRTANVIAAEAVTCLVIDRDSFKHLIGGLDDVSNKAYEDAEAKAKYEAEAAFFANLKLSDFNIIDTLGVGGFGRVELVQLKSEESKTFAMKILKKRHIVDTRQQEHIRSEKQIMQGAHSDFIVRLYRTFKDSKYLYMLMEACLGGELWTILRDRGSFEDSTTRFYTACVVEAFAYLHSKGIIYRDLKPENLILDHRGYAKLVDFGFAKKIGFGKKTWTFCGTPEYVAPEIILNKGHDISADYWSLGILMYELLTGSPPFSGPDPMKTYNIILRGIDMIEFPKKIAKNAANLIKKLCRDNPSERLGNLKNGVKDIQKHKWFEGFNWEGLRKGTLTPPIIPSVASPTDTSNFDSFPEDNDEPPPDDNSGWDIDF

[8] = test system: Mus musculus; experiment: Antihypertensive activity in CD1 mouse assessed as decrease in body temperature at 10 to 20 mg/kg, po measured after 0.5 to 4 hrs; format: functional; conditions: dose 10-20 mg/kg, time 0.5-4 hrs
[9] = test system: Mus musculus; experiment: Antihypertensive activity in CD1 mouse assessed as decrease in mean arterial pressure at 10 to 20 mg/kg, po measured after 0.5 to 2 hrs; format: functional; conditions: dose 10-20 mg/kg, time 0.5-2 hrs
[10] = test system: Mus musculus; experiment: Antihypertensive activity in CD1 mouse assessed as decrease in diastolic blood pressure at 10 to 20 mg/kg, po measured after 0.5 to 2 hrs; format: functional; conditions: dose 10-20 mg/kg, time 0.5-2 hrs
[11] = biological target: LIM domain kinase 2 (Homo sapiens, UniProt P53671); experiment: Inhibition of wild-type human full length LIMK2 (M1 to P638 residues) expressed in bacterial expression system by Kinomescan method
[12] = Inhibition of ROCK in rat A7R5 cells assessed as cofilin serine 3 phosphorylation incubated for 1 hr by ICW assay; conditions: A7R5, 1 h
[13] = Inhibition of ROCK in human PANC-1 cells assessed as decrease in MYPT1 phosphorylation at T850 residues measured after 1 hr by Western blot analysis; format: cell-based; conditions: PANC-1, 1 h

LIM domain kinase 2, sequence (P53671 whole entry, the tested form may be a part): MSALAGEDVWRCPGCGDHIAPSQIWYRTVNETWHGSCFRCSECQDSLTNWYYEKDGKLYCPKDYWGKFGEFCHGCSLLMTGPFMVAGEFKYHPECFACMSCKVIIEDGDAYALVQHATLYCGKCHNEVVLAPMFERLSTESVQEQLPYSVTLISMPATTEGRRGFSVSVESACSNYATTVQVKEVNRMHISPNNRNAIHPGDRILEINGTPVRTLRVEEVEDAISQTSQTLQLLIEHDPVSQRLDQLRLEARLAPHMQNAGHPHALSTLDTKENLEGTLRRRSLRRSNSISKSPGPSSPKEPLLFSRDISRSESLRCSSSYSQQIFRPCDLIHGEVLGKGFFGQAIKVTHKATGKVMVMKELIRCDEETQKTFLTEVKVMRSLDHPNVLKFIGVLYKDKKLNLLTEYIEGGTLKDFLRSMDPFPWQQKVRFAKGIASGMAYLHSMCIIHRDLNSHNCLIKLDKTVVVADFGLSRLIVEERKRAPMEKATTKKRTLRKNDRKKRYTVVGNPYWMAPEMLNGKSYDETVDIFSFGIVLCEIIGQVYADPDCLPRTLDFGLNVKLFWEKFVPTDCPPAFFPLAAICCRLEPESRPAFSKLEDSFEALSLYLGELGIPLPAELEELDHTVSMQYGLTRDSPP
Rho-associated protein kinase 2, sequence (O75116 whole entry, the tested form may be a part): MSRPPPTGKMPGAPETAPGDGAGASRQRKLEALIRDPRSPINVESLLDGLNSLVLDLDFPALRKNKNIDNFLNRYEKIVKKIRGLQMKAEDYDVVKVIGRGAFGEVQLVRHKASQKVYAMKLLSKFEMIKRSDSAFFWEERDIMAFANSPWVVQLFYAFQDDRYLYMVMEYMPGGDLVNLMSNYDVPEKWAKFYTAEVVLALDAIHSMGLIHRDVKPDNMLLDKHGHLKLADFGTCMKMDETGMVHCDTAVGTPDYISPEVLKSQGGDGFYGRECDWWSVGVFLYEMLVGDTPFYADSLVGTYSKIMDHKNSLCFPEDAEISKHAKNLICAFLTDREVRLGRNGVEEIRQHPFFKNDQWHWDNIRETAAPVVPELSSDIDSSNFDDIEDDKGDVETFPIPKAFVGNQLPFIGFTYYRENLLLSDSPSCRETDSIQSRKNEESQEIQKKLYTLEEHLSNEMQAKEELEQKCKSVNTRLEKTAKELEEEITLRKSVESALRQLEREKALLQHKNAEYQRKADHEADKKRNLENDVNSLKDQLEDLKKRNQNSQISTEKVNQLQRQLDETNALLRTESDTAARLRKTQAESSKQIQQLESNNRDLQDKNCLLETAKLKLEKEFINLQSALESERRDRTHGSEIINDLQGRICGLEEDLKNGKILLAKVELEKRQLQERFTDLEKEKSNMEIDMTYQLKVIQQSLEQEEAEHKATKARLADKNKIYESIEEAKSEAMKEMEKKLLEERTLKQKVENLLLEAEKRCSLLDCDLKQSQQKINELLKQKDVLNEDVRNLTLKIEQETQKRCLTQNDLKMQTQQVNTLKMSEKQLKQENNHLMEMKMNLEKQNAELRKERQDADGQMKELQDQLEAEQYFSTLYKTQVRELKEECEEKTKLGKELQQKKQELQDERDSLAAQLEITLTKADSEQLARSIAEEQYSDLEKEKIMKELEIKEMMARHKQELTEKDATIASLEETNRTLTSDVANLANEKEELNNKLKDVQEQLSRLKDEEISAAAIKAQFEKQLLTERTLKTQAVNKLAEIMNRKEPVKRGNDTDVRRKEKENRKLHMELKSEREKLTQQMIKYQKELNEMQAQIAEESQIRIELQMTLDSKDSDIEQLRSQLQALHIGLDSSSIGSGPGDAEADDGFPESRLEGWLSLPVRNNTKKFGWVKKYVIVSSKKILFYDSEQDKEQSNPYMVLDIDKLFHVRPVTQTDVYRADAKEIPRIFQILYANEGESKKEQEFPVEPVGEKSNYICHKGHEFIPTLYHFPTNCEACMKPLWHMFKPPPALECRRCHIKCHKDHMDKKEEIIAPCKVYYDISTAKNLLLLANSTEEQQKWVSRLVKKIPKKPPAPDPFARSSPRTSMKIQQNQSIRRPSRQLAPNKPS

For `COc1cccc([C@@H](C)NC(=O)N2CCN(c3ccncc3F)C[C@H]2C)c1`, the Activity [1] was 59.5 mmHg, the inhibition [2] was “Tde” and the EC50 [3] was 28 nM. For the same compound, the Activity [4] was 107 bpm, the IC50 [5] was 3 nM and the inhibition [6] was “Dde”. It also gave an IC50 [7] of 2250 nM, a T [8] of 2.5 °C and an Activity [9] of 61 mmHg. The Activity [10] was 56.4 mmHg, the IC50 [11] was 25 nM and the IC50 [12] was 8 nM. It also gave an IC50 [13] of 14 nM.
